Measurements taken from PMC8795197, “Safety and activity of WX-0593 (Iruplinalkib) in patients with ALK- or ROS1-rearranged advanced non-small cell lung cancer: a phase 1 dose-escalation and dose-expansion trial” (Signal Transduction and Targeted Therapy, 2022).
“Also recorded” adds a separate entry of the source.

System: advanced NSCLC patients with ALK or ROS1 rearrangement
Test: Phase 1 dose-expansion phase: antitumor activity (RECIST 1.1, investigators)
Assay type: in vivo, human
Conditions: for intracranial objective response rate: Baseline measurable CNS metastasis; for DOR, median (95% CI) / PFS, median (95% CI) / TTP, median (95% CI) / DCR (95% CI) / ORR (95% CI) / PFS, number of events (%): ALK-positive patients
Excerpt: Patients continued treatment until documented disease progression, unacceptable toxicity, withdrawal of consent, the start of a new anticancer treatment, death, loss of follow-up, or end of the study (whichever occurred first). Patients were permitted to continue treatment after progression if they were still experiencing clinical benefit, at the discretion of the investigator. Patients performed imaging evaluation at baseline, with computed tomography or magnetic resonance imaging of the chest, abdomen, pelvis, and brain. In the dose-escalation phase, the first efficacy evaluation was done after 3-week continuous administration of WX-0593 and every 6 weeks thereafter. […] AEs were assessed in all patients throughout this study and graded per the National Cancer Institute Common Terminology Criteria for Adverse Events version 4.03. In the dose-expansion phase, the primary endpoint was ORR assessed by investigators. Other key secondary endpoints included PFS, DCR, time to progression (TTP), DOR, intracranial response, and safety. Additionally, overall survival (OS) was assessed as a prespecified exploratory endpoint. ORR was defined as the proportion of patients who had best overall response, including CR or PR. PFS was calculated from the date of the first dose of WX-0593 to the date of documented disease progression or death (whichever occurred first). DCR was defined as the proportion of patients who had best overall response, including CR, PR, or SD, with a duration of at least 12 weeks. TTP was calculated from the date when the first dose of WX-0593 was given to first documented disease progression. […] OS was calculated from the date when the first dose of WX-0593 was administered to the date of death from any cause. Safety analysis was performed in the SS, which was comprised of all patients treated with one dose of WX-0593 and with safety data recorded. Efficacy analysis was performed in the FAS, which was defined as all patients treated with at least one dose of WX-0593. The PK analysis set included all patients treated with at least one dose of WX-0593 and with at least one evaluable PK sample. […] Descriptive statistics were carried out to summarize patients’ baseline characteristics and safety. […] All time-to-event data (PFS, TTP, DOR, and OS) and their corresponding 95% CIs were estimated by Kaplan–Meier methods. PK parameter analyses were done with Phoenix WinNonlin version 8.0. All other statistical analyses were conducted using SAS version 9.4.

[1] = ALK-rearranged, crizotinib as the only ALK TKI

## COc1cc(N2CCC3(CCN(C)CC3)CC2)ccc1Nc1ncc(Cl)c(Nc2ccccc2P(C)(C)=O)n1 [WX-0593]
120mg, ALK-rearranged patients
  objective response rate: 53.2% (25/47, 38.1-67.9%)
120mg, ALK-rearranged patients, ALK TKI naive
  objective response rate: 76.5% (13/17, 50.1-93.2%)
120mg, ALK-rearranged patients, ALK TKI naive, chemotherapy naïve
  objective response rate: 75.0%(6/8, 34.9-96.8%)
120mg, ALK-rearranged patients, ALK TKI naive, received chemotherapy before
  objective response rate: 77.8% (7/9, 40.0-97.2%)
120mg, ALK-rearranged patients, Crizotinib and other ALK TKIs
  objective response rate: 0 (0/2, 0-84.2%)
120mg, ALK-rearranged patients, Crizotinib only
  objective response rate: 44.4% (12/27, 25.5-64.7%)
120mg, ALK-rearranged patients, Other ALK TKIs
  objective response rate: 0 (0/1, 0-97.5%)
120mg, Baseline CNS metastasis
  objective response rate: 22.9% (8/35, 10.4-40.1%)
120mg, Baseline CNS metastasis, ALK TKI naive
  objective response rate: 23.1% (3/13, 5.0-53.8%)
120mg, Baseline CNS metastasis, Crizotinib only
  objective response rate: 25.0% (5/20, 8.7-49.1%)
120mg, Baseline CNS metastasis, Radiotherapy before
  objective response rate: 16.7% (2/12, 2.1-48.4%)
120mg, Baseline CNS metastasis, Radiotherapy naïve
  objective response rate: 26.1% (6/23, 10.2-48.4%)
120mg
  intracranial objective response rate: 45.5% (2/11, 16.7-76.6%)
120mg, ALK TKI naive
  intracranial objective response rate: 33.3% (1/3, 0.8-90.6%)
120mg, Crizotinib only
  intracranial objective response rate: 50.0% (4/8, 15.7-84.3%)
120mg, Radiotherapy before
  intracranial objective response rate: 28.6% (2/7, 3.7-71.0%)
120mg, Radiotherapy naïve
  intracranial objective response rate: 75.0% (3/4, 19.4-99.4%)
120mg, Prior ALK TKI treatment: Crizotinib and other ALK TKI
  objective response rate: 0 (0/2, 0-84.2%)
120mg, Prior ALK TKI treatment: Crizotinib only
  objective response rate: 41.4% (12/29, 23.5-61.1%)
120mg, ROS1-rearranged patients
  objective response rate: 0 (0/3, 0-70.8%)
120mg, ROS1-rearranged patients, Crizotinib naive
  objective response rate: 0 (0/1, 0-97.5%)
120mg, ROS1-rearranged patients, Received Crizotinib before
  objective response rate: 0 (0/2, 0-84.2%)
120mg, dose expansion phase, Prior ALK TKI treatment: ALK TKI naive
  objective response rate: 72.2% (13/18, 46.5-90.3%)
180mg, ALK-rearranged patients
  objective response rate: 63.6% (28/44, 47.8-77.6%)
180mg, ALK-rearranged patients, ALK TKI naive
  objective response rate: 76.2% (16/21, 52.8-91.8%)
180mg, ALK-rearranged patients, ALK TKI naive, chemotherapy naïve
  objective response rate: 91.7% (11/12, 61.5-99.8%)
180mg, ALK-rearranged patients, ALK TKI naive, received chemotherapy before
  objective response rate: 55.6% (5/9, 21.2-86.3%)
180mg, ALK-rearranged patients, Crizotinib and other ALK TKIs
  objective response rate: 66.7% (2/3, 9.4-99.2%)
180mg, ALK-rearranged patients, Crizotinib only
  objective response rate: 47.4% (9/19, 24.4-71.1%)
180mg, ALK-rearranged patients, Other ALK TKIs
  objective response rate: 100% (1/1, 2.5-100.0%)
180mg, Baseline CNS metastasis, ALK TKI naive
  objective response rate: 28.6% (2/7, 3.7-71.0%)
180mg, Baseline CNS metastasis, Crizotinib only
  objective response rate: 15.4% (2/13, 1.9-45.4%)
180mg, Baseline CNS metastasis, Radiotherapy before
  objective response rate: 0 (0/7, 0-41.0%)
180mg, Baseline CNS metastasis, Radiotherapy naïve
  objective response rate: 31.3% (5/16, 11.0-58.7%)
180mg
  intracranial objective response rate: 50.0% (2/4, 6.8-93.2%)
180mg, ALK TKI naive
  intracranial objective response rate: 100% (1/1, 2.5-100%)
180mg, Crizotinib only
  intracranial objective response rate: 50.0% (1/2, 1.3-98.7%)
180mg, Radiotherapy naïve
  intracranial objective response rate: 31.3% (5/16, 11.0-58.7%)
180mg, Prior ALK TKI treatment: Crizotinib and other ALK TKI
  objective response rate: 66.7% (2/3, 9.4-99.2%)
180mg, Prior ALK TKI treatment: Crizotinib only
  objective response rate: 42.9% (9/21, 21.8-66.0%)
180mg, ROS1-rearranged patients
  objective response rate: 66.7% (4/6, 22.3-95.7%)
180mg, ROS1-rearranged patients, Crizotinib naive
  objective response rate: 100% (4/4, 39.8-100%)
180mg, ROS1-rearranged patients, Received Crizotinib before
  objective response rate: 0 (0/2, 0-84.2%)
180mg, dose expansion phase, Prior ALK TKI treatment: ALK TKI naive
  objective response rate: 79.2% (19/24, 57.8-92.9%)
ALK TKI naive
  DCR: 92.9%
  ORR: 76.2%
  median PFS: not reached
120 mg
  DOR, median (95% CI): NR (5.52, NR)
  PFS, median (95% CI): NR (6.87, NR)
  TTP, median (95% CI): NR (6.87, NR)
120 mg (n=47)
  DCR (95% CI): 83.0% (69.2%, 92.4%)
  ORR (95% CI): 53.2% (38.1%, 67.9%)
  PFS, number of events (%): 12 (25.5%)
180 mg
  DOR, median (95% CI): NR (5.49, NR)
  PFS, median (95% CI): NR (NR, NR)
  TTP, median (95% CI): NR (NR, NR)
180 mg (n=44)
  DCR (95% CI): 88.6% (75.4%, 96.2%)
  ORR (95% CI): 63.6% (47.8%, 77.6%)
  PFS, number of events (%): 8 (18.2%)
total
  DOR, median (95% CI): NR (5.65, NR)
  PFS, median (95% CI): not reached (95% CI 6.93 months to NR); also recorded: NR (6.93, NR)
  TTP, median (95% CI): NR (6.93, NR)
Total (n=91)
  PFS, number of events (%): 20 (22.0%)
ALK-rearranged patients (n = 91)
  patients who achieved SD: Twenty-five
ALK-rearranged, ALK TKI naive
  ORR: 76.3%
ALK-rearranged, ALK TKI naive, chemotherapy-naive
  ORR: 85.0%
ALK-rearranged, ALK TKI naive, received chemotherapy
  ORR: 66.7%
[1]
  ORR: 45.7%
  median PFS: 6.9 months
FAS n = 99
  patients who achieved PR, n (%): 56 (56.6%)
  patients with progressive disease, n (%): 8 (8.1%)
  patients with stable disease (SD), n (%): 27 (27.3%)
